Assay results as given in the supplement of paper PMC10307832.

Key:
Assay in all cases: relative viability (nuclei count vs DMSO), 5 days (fraction); higher = more cells survive
[1] = test system: ABC-1
How it was run: (§1)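 Dosing by pin tool came one day after lung cancer cell lines were seeded in 1536-well plates, using either one drug or a fixed anchor-drug dose plus five library-drug doses (not always all listed) in √10 steps. After 5 days, nuclei were counted on 4× images. Relative viability is treated-well nuclei count divided by vehicle-well nuclei count, and values are medians of duplicate plates.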

[2] = test system: CAL-12T
How it was run: as §1

[3] = test system: HCC-366
How it was run: as §1

[4] = test system: HCC-78
How it was run: as §1

[5] = test system: LC-2-ad
How it was run: as §1

[6] = test system: LOU-NH91
How it was run: as §1

[7] = test system: LU99A
How it was run: as §1

[8] = test system: NCI-H1395
How it was run: as §1

[9] = test system: NCI-H1651
How it was run: as §1

[10] = test system: NCI-H1755
How it was run: as §1

[11] = test system: NCI-H1793
How it was run: as §1

[12] = test system: NCI-H1944
How it was run: as §1

[13] = test system: NCI-H2087
How it was run: as §1

[14] = test system: NCI-H2170
How it was run: as §1

[15] = test system: NCI-H2228
How it was run: as §1

[16] = test system: NCI-H2405
How it was run: as §1

[17] = test system: NCI-H3122
How it was run: as §1

[18] = test system: NCI-H460
How it was run: as §1

[19] = test system: PC-3 [JPC-3]
How it was run: as §1

[20] = test system: RERF-LC-KJ
How it was run: as §1

[21] = test system: UMC-11
How it was run: as §1

CCN(CC)CCCCNc1ncc2cc(-c3cc(OC)cc(OC)c3)c(NC(=O)NC(C)(C)C)nc2n1 + Cc1nc(NC(=O)N2CCC[C@H]2C(N)=O)sc1-c1ccnc(C(C)(C)C(F)(F)F)c1 [Alpelisib] (partner 2 µM)
relative viability ([1]; first compound 0.01 µM): 1.2
relative viability ([1]; first compound 0.03162 µM): 0.997
relative viability ([1]; first compound 0.1 µM): 1.06
relative viability ([1]; first compound 0.3162 µM): 1.47
relative viability ([1]; first compound 1 µM): 1.13
relative viability ([2]; first compound 0.01 µM): 1.35
relative viability ([2]; first compound 0.03162 µM): 1.24
relative viability ([2]; first compound 0.1 µM): 1.14
relative viability ([2]; first compound 0.3162 µM): 1.49
relative viability ([2]; first compound 1 µM): 0.902
relative viability ([3]; first compound 0.01 µM): 0.385
relative viability ([3]; first compound 0.03162 µM): 0.326
relative viability ([3]; first compound 0.1 µM): 0.757
relative viability ([3]; first compound 0.3162 µM): 0.584
relative viability ([3]; first compound 1 µM): 0.47
relative viability ([4]; first compound 0.03162 µM): 0.255
relative viability ([4]; first compound 0.1 µM): 0.308
relative viability ([4]; first compound 0.3162 µM): 0.348
relative viability ([4]; first compound 1 µM): 0.303
relative viability ([5]; first compound 0.01 µM): 1.03
relative viability ([5]; first compound 0.03162 µM): 0.918
relative viability ([5]; first compound 0.1 µM): 0.942
relative viability ([5]; first compound 0.3162 µM): 1.07
relative viability ([5]; first compound 1 µM): 0.865
relative viability ([6]; first compound 0.01 µM): 0.672
relative viability ([6]; first compound 0.03162 µM): 0.673
relative viability ([6]; first compound 0.1 µM): 0.741
relative viability ([6]; first compound 0.3162 µM): 0.734
relative viability ([6]; first compound 1 µM): 0.696
relative viability ([7]; first compound 0.01 µM): 0.5
relative viability ([7]; first compound 0.03162 µM): 0.523
relative viability ([7]; first compound 0.1 µM): 0.55
relative viability ([7]; first compound 0.3162 µM): 0.666
relative viability ([7]; first compound 1 µM): 0.575
relative viability ([8]; first compound 0.03162 µM): 1.19
relative viability ([8]; first compound 0.1 µM): 1.07
relative viability ([8]; first compound 0.3162 µM): 0.802
relative viability ([8]; first compound 1 µM): 0.637
relative viability ([9]; first compound 0.01 µM): 0.938
relative viability ([9]; first compound 0.03162 µM): 1
relative viability ([9]; first compound 0.1 µM): 1.1
relative viability ([9]; first compound 0.3162 µM): 1.13
relative viability ([9]; first compound 1 µM): 0.844
relative viability ([10]; first compound 0.01 µM): 0.983
relative viability ([10]; first compound 0.03162 µM): 0.942
relative viability ([10]; first compound 0.1 µM): 0.983
relative viability ([10]; first compound 0.3162 µM): 1.06
relative viability ([10]; first compound 1 µM): 0.927
relative viability ([11]; first compound 0.01 µM): 0.748
relative viability ([11]; first compound 0.1 µM): 0.958
relative viability ([11]; first compound 0.3162 µM): 0.716
relative viability ([11]; first compound 1 µM): 0.642
relative viability ([12]; first compound 0.01 µM): 0.884
relative viability ([12]; first compound 0.03162 µM): 0.842
relative viability ([12]; first compound 0.1 µM): 0.89
relative viability ([12]; first compound 0.3162 µM): 0.95
relative viability ([12]; first compound 1 µM): 0.799
relative viability ([13]; first compound 0.01 µM): 1.12
relative viability ([13]; first compound 0.03162 µM): 1.03
relative viability ([13]; first compound 0.1 µM): 1.53
relative viability ([13]; first compound 0.3162 µM): 1.23
relative viability ([13]; first compound 1 µM): 1.15
relative viability ([14]; first compound 0.01 µM): 0.92
relative viability ([14]; first compound 0.03162 µM): 0.822
relative viability ([14]; first compound 0.1 µM): 0.831
relative viability ([14]; first compound 0.3162 µM): 0.894
relative viability ([14]; first compound 1 µM): 0.807
relative viability ([15]; first compound 0.01 µM): 0.796
relative viability ([15]; first compound 0.03162 µM): 0.755
relative viability ([15]; first compound 0.1 µM): 0.913
relative viability ([15]; first compound 0.3162 µM): 0.672
relative viability ([15]; first compound 1 µM): 0.469
relative viability ([16]; first compound 0.01 µM): 0.574
relative viability ([16]; first compound 0.03162 µM): 0.709
relative viability ([16]; first compound 0.1 µM): 0.814
relative viability ([16]; first compound 0.3162 µM): 0.862
relative viability ([16]; first compound 1 µM): 0.72
relative viability ([17]; first compound 0.01 µM): 0.941
relative viability ([17]; first compound 0.03162 µM): 0.877
relative viability ([17]; first compound 0.1 µM): 0.906
relative viability ([17]; first compound 0.3162 µM): 0.931
relative viability ([17]; first compound 1 µM): 0.824
relative viability ([18]; first compound 0.01 µM): 0.646
relative viability ([18]; first compound 0.03162 µM): 0.58
relative viability ([18]; first compound 0.1 µM): 0.82
relative viability ([18]; first compound 0.3162 µM): 0.463
relative viability ([18]; first compound 1 µM): 0.399
relative viability ([19]; first compound 0.01 µM): 1.03
relative viability ([19]; first compound 0.03162 µM): 1.02
relative viability ([19]; first compound 0.1 µM): 0.99
relative viability ([19]; first compound 0.3162 µM): 1.05
relative viability ([19]; first compound 1 µM): 1.07
relative viability ([20]; first compound 0.01 µM): 1.08
relative viability ([20]; first compound 0.03162 µM): 0.919
relative viability ([20]; first compound 0.1 µM): 0.925
relative viability ([20]; first compound 0.3162 µM): 0.951
relative viability ([20]; first compound 1 µM): 0.826
relative viability ([21]; first compound 0.01 µM): 1.08
relative viability ([21]; first compound 0.03162 µM): 0.921
relative viability ([21]; first compound 0.1 µM): 1.02
relative viability ([21]; first compound 0.3162 µM): 1.17
relative viability ([21]; first compound 1 µM): 0.88
